Reference: article PMC12866986 (European journal of medicinal chemistry, 2026)
Where “and” joins values, the source holds several entries; their conditions need not be identical. Equal entries are not always repeated. Where two headings read alike, the source gives them in different places.

Key:
Caco-2 cells [1] = conditions: cited from earlier work
Src = conditions: at 10 μM; cited from earlier work
Pyk2 = conditions: at 10 μM; cited from earlier work
gut mucosal wound = conditions: cited from earlier work
FAK = FAK (Homo sapiens, UniProt Q05397); conditions: 1 h, relative to vehicle control, n = 8 measurements
Chain of FAK (Q05397 whole entry): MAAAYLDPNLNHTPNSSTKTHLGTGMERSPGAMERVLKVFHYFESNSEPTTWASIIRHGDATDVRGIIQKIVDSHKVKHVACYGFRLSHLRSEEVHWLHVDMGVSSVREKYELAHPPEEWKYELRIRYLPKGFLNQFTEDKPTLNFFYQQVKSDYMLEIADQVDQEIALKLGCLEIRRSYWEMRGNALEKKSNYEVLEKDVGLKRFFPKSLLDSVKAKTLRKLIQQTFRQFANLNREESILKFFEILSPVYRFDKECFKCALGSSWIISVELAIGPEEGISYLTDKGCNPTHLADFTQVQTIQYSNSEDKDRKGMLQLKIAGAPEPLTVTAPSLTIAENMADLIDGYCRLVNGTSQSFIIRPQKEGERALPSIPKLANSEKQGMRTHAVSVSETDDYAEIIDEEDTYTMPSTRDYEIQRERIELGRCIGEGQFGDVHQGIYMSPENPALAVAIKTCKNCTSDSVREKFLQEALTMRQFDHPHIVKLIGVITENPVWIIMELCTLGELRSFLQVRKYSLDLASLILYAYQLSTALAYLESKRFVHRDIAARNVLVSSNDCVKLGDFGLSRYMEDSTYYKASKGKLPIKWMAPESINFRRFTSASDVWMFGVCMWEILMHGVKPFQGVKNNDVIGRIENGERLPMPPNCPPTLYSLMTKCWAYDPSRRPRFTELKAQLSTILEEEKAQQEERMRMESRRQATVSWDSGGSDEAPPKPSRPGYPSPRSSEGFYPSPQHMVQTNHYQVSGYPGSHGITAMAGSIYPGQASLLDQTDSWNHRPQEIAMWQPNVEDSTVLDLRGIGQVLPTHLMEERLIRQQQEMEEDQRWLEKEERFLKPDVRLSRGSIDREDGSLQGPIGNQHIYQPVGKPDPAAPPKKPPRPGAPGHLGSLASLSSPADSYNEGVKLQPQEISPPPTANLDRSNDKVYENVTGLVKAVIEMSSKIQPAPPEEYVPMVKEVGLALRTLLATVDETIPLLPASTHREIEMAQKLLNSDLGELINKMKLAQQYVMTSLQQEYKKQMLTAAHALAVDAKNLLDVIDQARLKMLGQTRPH

Caco-2 cells [2] = conditions: for wound closure with proliferation inhibited: 100 nM, 4 mM hydroxyurea, 24 h, Caco-2 monolayers, n=33–35, p<0.05 vs vehicle; for EC50: read-out: EC50 (nM), ± SEM, wound healing, Caco-2 assay
hERG = hERG (Homo sapiens, UniProt Q12809); conditions: at 30 μM
Chain of hERG (Q12809 whole entry): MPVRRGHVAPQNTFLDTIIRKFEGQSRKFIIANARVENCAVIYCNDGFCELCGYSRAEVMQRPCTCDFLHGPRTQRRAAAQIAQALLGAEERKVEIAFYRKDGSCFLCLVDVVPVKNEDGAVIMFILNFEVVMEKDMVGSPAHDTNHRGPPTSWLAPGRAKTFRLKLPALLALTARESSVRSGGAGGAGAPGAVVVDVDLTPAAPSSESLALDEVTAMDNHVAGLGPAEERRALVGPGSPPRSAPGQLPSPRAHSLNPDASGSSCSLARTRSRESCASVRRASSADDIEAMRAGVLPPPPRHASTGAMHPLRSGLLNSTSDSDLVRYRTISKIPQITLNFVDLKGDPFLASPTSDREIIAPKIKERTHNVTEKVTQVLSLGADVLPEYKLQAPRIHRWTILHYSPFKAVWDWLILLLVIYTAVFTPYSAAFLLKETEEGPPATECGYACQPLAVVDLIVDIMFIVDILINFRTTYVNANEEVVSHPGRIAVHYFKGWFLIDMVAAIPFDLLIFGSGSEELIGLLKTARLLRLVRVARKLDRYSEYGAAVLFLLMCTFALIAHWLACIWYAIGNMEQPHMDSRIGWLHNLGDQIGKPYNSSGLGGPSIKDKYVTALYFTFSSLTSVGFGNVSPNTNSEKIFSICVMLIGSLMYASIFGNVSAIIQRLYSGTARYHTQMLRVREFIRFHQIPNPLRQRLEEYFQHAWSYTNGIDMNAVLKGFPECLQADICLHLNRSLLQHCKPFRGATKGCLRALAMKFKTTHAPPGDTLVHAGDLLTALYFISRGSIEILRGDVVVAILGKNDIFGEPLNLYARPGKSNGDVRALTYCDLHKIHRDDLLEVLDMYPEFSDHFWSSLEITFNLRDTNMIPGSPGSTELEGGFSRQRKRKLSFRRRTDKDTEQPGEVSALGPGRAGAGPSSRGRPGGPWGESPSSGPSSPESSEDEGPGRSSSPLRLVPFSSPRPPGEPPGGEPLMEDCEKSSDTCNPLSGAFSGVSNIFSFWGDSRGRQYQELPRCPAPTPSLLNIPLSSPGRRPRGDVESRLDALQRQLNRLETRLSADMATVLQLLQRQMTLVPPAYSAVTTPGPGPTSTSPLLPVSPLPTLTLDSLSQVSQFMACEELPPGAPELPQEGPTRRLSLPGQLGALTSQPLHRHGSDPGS

[3] = for Clint: intrinsic clearance; for MLM t1/2: mouse liver microsomes
[4] = PBS at pH = 7.4
[5] = rat plasma
[6] = at concentrations 10,000x higher than the effective dose; cited from earlier work
[7] = after four days of continuous administration; cited from earlier work
[8] = cited from earlier work
[9] = cited from earlier work; remark: listed apart in the source

SMILES: CN(C)C(CNC(=O)Nc1cc(C(F)(F)F)ccc1N1CCOCC1)c1ccncc1 (stereo not shown) [Compound 5a, 1-(2-(dimethylamino)-2-(pyridin-4-yl)ethyl)-3-(2-morpholino-5-(trifluoromethyl)phenyl)urea]
- epithelial sheet migration in vitro (Caco-2 cells [1]): induces epithelial sheet migration
- Src activation (Src): does not activate
- Pyk2 activation (Pyk2): does not activate
- gut mucosal wound healing in vivo (gut mucosal wound): stimulates gut mucosal wound healing

SMILES: CN(C)C(CNC(=O)Nc1cc(C(F)F)ccc1N1CCOCC1)c1ccncc1 (stereo not shown) [Compound 10f, 1-(5-(Difluoromethyl)-2-morpholinophenyl)-3-(2-(dimethylamino)-2-(pyridin-4-yl)ethyl)urea]
- FAK-Tyr-397/FAK fold change, ± SEM (FAK; 100 nM): 1.2±0.08 fold change

SMILES: O=C(NCCc1cnccn1)Nc1cc(C(F)(F)F)ccc1N1CCOCC1 [Compound 8, 1-(2-Morpholino-5-(trifluoromethyl)phenyl)-3-(2-(pyrazin-2-yl)ethyl)urea]
- FAK-Tyr-397/FAK fold change, ± SEM (FAK; 100 nM): 0.93±0.08 fold change

SMILES: CN(C)C(CNC(=O)Nc1cc(C(F)(F)F)ccc1N1CCOCC1)c1cccnc1 (stereo not shown) [Compound 5b, 1-(2-(Dimethylamino)-2-(pyridin-3-yl)ethyl)-3-(2-morpholino-5-(trifluoromethyl)phenyl)urea]
- FAK-Tyr-397/FAK fold change, ± SEM (FAK; 100 nM): 1.0±0.04 fold change

SMILES: CN(C)C(CNC(=O)Nc1ccccc1N1CCOCC1)c1ccncc1 (stereo not shown) [Compound 10a, 1-(2-(Dimethylamino)-2-(pyridin-4-yl)ethyl)-3-(2-morpholinophenyl)urea]
- FAK-Tyr-397/FAK fold change, ± SEM (FAK; 100 nM): 1.23±0.07 fold change

SMILES: CN(C)C(CNC(=O)Nc1cc(Cl)ccc1N1CCOCC1)c1ccncc1 (stereo not shown) [Compound 10e, 1-(5-Chloro-2-morpholinophenyl)-3-(2-(dimethylamino)-2-(pyridin-4-yl)ethyl)urea]
- FAK-Tyr-397/FAK fold change, ± SEM (FAK; 100 nM): 0.82±0.06 fold change

SMILES: CN(C)C(CNC(=O)Nc1cc(C(F)(F)F)ccc1N1CCOCC1)c1ccncc1.Cl (stereo not shown) [Compound 5aHCl, 1-(2-(dimethylamino)-2-(pyridin-4-yl)ethyl)-3-(2-morpholino-5-(trifluoromethyl)phenyl)urea hydrochloric salt]
- wound closure with proliferation inhibited (Caco-2 cells [2]): accelerated
- EC50 (Caco-2 cells [2]): 3.01 ± 0.52 nM
- hERG Inhibition % (hERG): 4.87%
- Clint [3]: > 307 uL/min/mg protein
- MLM t1/2 [3]: < 4.51 min
- Solubility [4]: 1074 µg/mL
- area under the curve ([5]; 10 mg/kg oral gavage): 3149 µg·h/mL
- time of Cmax ([5]; 10 mg/kg oral gavage): 1 h
- maximum concentration (Cmax) ([5]; 10 mg/kg oral gavage in saline, n = 4): 967 ng/mL
- in vitro cytotoxicity [6]: no in vitro cytotoxicity
- in vivo toxicity [7]: no in vivo toxicity
- water solubility [8]: water-soluble
- oral bioavailability [9]: orally bioavailable

SMILES: CN(C)C(CNC(=O)Nc1cc(F)ccc1N1CCOCC1)c1ccncc1.Cl (stereo not shown) [Compound 10bHCl, 1-(2-(Dimethylamino)-2-(pyridin-4-yl)ethyl)-3-(5-fluoro-2-morpholinophenyl)urea hydrochloric salt]
- FAK-Tyr-397/FAK fold change, ± SEM (FAK; 10 nM): 1.25 fold change
- FAK-Tyr-397/FAK fold change, ± SEM (FAK; 100 nM): 1.39 fold change
- wound closure with proliferation inhibited (Caco-2 cells [2]): accelerated
- EC50 (Caco-2 cells [2]): 2.36 ± 0.58 nM
- hERG Inhibition % (hERG): 15.2%
- Clint [3]: > 307 uL/min/mg protein
- MLM t1/2 [3]: <4.51 min
- Solubility [4]: 985 µg/mL

SMILES: CN(C)C(CNC(=O)Nc1cc(F)ccc1N1CCOCC1)c1ccncc1 (stereo not shown) [Compound 10b, 1-(2-(Dimethylamino)-2-(pyridin-4-yl)ethyl)-3-(5-fluoro-2-morpholinophenyl)urea]
- FAK-Tyr-397/FAK fold change, ± SEM (FAK; 100 nM): 1.12 fold change and 1.12±0.05 fold change

SMILES: Cl.O=C(NCCc1ccncc1)Nc1cc(C(F)(F)F)ccc1N1CCOCC1 [Compound 7HCl, 1-(2-Morpholino-5-(trifluoromethyl)phenyl)-3-(2-(pyridin-4-yl)ethyl)urea hydrochloric salt]
- FAK-Tyr-397/FAK fold change, ± SEM (FAK; 100 nM): 0.91±0.13 fold change

SMILES: COCOc1ccc(N2CCOCC2)c(NC(=O)NCC(c2ccncc2)N(C)C)c1 (stereo not shown) [Compound 10i, 1-(2-(Dimethylamino)-2-(pyridin-4-yl)ethyl)-3-(5-(methoxymethoxy)-2-morpholinophenyl)urea]
- FAK-Tyr-397/FAK fold change, ± SEM (FAK; 100 nM): 1.28±0.1 fold change

SMILES: CN(C)C(CNC(=O)Nc1cc(C(F)(F)F)ccc1N1CCOCC1)c1cccnc1.Cl (stereo not shown) [Compound 5bHCl, 1-(2-(Dimethylamino)-2-(pyridin-3-yl)ethyl)-3-(2-morpholino-5-(trifluoromethyl)phenyl)urea hydrochloric salt]
- FAK-Tyr-397/FAK fold change, ± SEM (FAK; 100 nM): 1.05±0.06 fold change

SMILES: O=C(NCCc1ccncc1)Nc1cc(C(F)(F)F)ccc1N1CCOCC1 [Compound 7, 1-(2-Morpholino-5-(trifluoromethyl)phenyl)-3-(2-(pyridin-4-yl)ethyl)urea]
- FAK-Tyr-397/FAK fold change, ± SEM (FAK; 100 nM): 0.98±0.07 fold change

SMILES: COCCOCCOc1ccc(N2CCOCC2)c(NC(=O)NCC(c2ccncc2)N(C)C)c1.Cl (stereo not shown) [Compound 10kHCl, 1-(2-(Dimethylamino)-2-(pyridin-4-yl)ethyl)-3-(5-(2-(2-methoxyethoxy)ethoxy)-2-morpholinophenyl)urea hydrochloric salt]
- wound closure with proliferation inhibited (Caco-2 cells [2]): accelerated
- EC50 (Caco-2 cells [2]): 3.01 ± 0.51 nM
- hERG Inhibition % (hERG): 0.608%
- Clint [3]: 93.0 uL/min/mg protein
- MLM t1/2 [3]: 14.9 min
- Solubility [4]: 1018 µg/mL

SMILES: CN(C)C(CNC(=O)Nc1cc(C(F)(F)F)ccc1N1CCOCC1)c1ccccn1 (stereo not shown) [Compound 5c, 1-(2-(Dimethylamino)-2-(pyridin-2-yl)ethyl)-3-(2-morpholino-5-(trifluoromethyl)phenyl)urea]
- FAK-Tyr-397/FAK fold change, ± SEM (FAK; 100 nM): 0.84±0.11 fold change

SMILES: COCCOc1ccc(N2CCOCC2)c(NC(=O)NCC(c2ccncc2)N(C)C)c1 (stereo not shown) [Compound 10j, 1-(2-(Dimethylamino)-2-(pyridin-4-yl)ethyl)-3-(5-(2-methoxyethoxy)-2-morpholinophenyl)urea]
- FAK-Tyr-397/FAK fold change, ± SEM (FAK; 100 nM): 1.05±0.1 fold change
